Experimental findings from ChEMBL document CHEMBL1201862, “PubChem BioAssay data set” (2004) are described below.

Activity calls are given as the source filed them.

One experiment has as its target Keap1/Nrf2 (Homo sapiens, UniProt Q14145). Kind of experiment: disruptors of Keap1 binding to Nrf2 peptide – biochemical, fluorescence polarization, cherry-picked samples, dose response (AID 588683). (In general: In fluorescence polarisation assays a small probe gives low polarisation when free and higher when bound to something large.)
The target of experiment [1] is T1, Endoribonuclease toxin MazF (Escherichia coli K-12, UniProt P0AE70).
T1 sequence (P0AE70 whole entry): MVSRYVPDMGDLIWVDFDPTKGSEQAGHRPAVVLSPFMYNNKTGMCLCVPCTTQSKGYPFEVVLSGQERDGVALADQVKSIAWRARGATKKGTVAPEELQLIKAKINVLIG
Kind of experiment: substrate-only fluorescence increase artefacts – biochemical, single-stranded RNase substrate, counter-screen for MazEF activator project, dose response (AID 588502). The format is functional. (Counterscreens check selectivity or assay interference.)

In experiment [2] the target is T1, Endoribonuclease toxin MazF. Nature of the experiment: activation of MazEF endoribonuclease cleavage – biochemical, fluorescence, single-stranded RNA substrate, uHTS hits, dose response (AID 588481). It counts as functional.
Experiment [3] addresses T2, Polyadenylate-binding protein 1 (Homo sapiens, UniProt P11940). Kind of experiment: PABP inhibition in translation initiation, SAR follow-up (AID 435018). It counts as functional.
Experiment [4] deals with T3, Small ubiquitin-related modifier 1 (Homo sapiens, UniProt P63165). Kind of experiment: SUMO1 protein interaction blockers, potency – biochemical, fluorescence polarization, uHTS hits, dose response (AID 624382). It counts as functional. The settings on record: read-out: IC50_Mean.
T3 sequence (P63165 whole entry): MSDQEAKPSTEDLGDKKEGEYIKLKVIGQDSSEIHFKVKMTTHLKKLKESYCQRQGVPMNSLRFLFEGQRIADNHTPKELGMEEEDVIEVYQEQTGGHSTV
In experiment [5] the target is T4, Eukaryotic translation initiation factor 4H (Homo sapiens, UniProt Q15056). Nature of the experiment: eIF4H binding inhibition – biochemical, uHTS, fluorescence polarization, translation initiation inhibitor project, primary screen (AID 2012).
For experiment [6], the target named is T3, Small ubiquitin-related modifier 1. Kind of experiment: SUMO1 protein-protein binding blockers, potency – biochemical, FRET, dose response (AID 624383). Conditions: read-out: IC50_Mean. The format is functional.
Experiment [7] has as its target T5, Apoptotic protease-activating factor 1 (Homo sapiens, UniProt O14727).
T5 sequence (O14727 whole entry): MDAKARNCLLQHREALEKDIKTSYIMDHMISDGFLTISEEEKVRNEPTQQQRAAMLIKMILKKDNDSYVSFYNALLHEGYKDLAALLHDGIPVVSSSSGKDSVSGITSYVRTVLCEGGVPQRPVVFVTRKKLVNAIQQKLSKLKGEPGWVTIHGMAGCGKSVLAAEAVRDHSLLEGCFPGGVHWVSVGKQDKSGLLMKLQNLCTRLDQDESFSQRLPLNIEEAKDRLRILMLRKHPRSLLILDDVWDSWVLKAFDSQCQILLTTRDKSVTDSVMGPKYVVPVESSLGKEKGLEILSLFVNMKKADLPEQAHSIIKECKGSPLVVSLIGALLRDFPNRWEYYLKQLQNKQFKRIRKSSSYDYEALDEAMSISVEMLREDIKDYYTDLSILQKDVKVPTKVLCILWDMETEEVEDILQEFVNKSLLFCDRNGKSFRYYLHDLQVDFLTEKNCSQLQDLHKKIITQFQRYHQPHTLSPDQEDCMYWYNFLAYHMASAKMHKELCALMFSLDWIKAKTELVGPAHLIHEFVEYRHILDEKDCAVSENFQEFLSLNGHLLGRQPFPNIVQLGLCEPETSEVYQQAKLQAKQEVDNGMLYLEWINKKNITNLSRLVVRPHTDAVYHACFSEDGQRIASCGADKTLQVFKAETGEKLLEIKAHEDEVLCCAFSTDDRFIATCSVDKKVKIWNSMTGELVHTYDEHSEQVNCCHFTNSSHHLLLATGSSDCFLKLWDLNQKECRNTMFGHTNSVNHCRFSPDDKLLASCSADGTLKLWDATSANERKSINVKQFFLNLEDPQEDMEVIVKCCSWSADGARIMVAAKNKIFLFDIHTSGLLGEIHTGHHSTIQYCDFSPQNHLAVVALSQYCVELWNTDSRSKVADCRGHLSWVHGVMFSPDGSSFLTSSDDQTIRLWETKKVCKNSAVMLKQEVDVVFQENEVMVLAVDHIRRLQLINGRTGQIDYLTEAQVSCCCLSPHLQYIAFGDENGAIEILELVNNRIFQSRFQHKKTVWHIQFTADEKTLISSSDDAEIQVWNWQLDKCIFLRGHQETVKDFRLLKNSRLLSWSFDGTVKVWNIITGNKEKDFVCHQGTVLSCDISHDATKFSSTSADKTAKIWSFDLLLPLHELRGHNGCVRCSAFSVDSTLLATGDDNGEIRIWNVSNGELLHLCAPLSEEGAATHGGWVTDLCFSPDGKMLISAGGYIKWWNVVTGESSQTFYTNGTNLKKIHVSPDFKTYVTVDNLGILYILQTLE
Kind of experiment: activation of Apaf-1 mediated apoptosis – fluorescent, uHTS hits, dose response (AID 588554). It counts as functional.

Experiment [8] concerns the target T2, Polyadenylate-binding protein 1. Kind of experiment: blockers of PABP interaction with poly(A) – biochemical, fluorescence polarization, […] (AID 2014).
For experiment [9], the target named is T4, Eukaryotic translation initiation factor 4H. Kind of experiment: inhibitors of translation initiation factor eIF4H – SAR follow-up (AID 435011). The format is functional.
Experiment [10] can be described thus: Luminescence Cell-Based Dose Retest to Confirm Inhibitors of Cancer Stem Cells. [Related pubchem assays (depositor defined):AID2717, AID2721]. It counts as functional. Conditions: Homo sapiens.
Experiment [11] is described as follows: A Cell Based Secondary Assay To Explore Cytotoxicity of Compounds that Sensitize Mycobacterium Tuberculosis to Beta-Lactam Antibiotics. It counts as functional.
Experiment [12] is described as follows: luciferase reporter signal suppression in cells – H4 neuroglioma cells, luminescence, dose response (AID 1990). It counts as functional, cell-based. A general note: Reporter assays use an easily measured gene product as a stand-in for the process of interest.
Experiment [13] can be described thus: Luminescence Cell-Based Dose Response HTS to Identify Inhibitors of 5'UTR Stem-Loop Driven Prion Protein mRNA Translation in H4 Neuroglioblastoma Cells. [Related pubchem assays: 1827 (Project Summary), 1813 (Primary HTS)]. The format is functional.
A short description of experiment [14]: viability loss of HMLE_sh_eGFP cells – cell-based, luminescence, counter-screen for HMLE_sh_ECad selective toxicity project, dose response (AID 463074).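 Also: HMLE human mammary epithelial cells expressing control shRNA against eGFP.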 The format is functional, Homo sapiens.
A further experiment has as its target T6, Estrogen receptor (Homo sapiens, UniProt P03372).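 Also: potency for inhibiting coactivator peptide recruitment to the receptor.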
T6 sequence (P03372 whole entry): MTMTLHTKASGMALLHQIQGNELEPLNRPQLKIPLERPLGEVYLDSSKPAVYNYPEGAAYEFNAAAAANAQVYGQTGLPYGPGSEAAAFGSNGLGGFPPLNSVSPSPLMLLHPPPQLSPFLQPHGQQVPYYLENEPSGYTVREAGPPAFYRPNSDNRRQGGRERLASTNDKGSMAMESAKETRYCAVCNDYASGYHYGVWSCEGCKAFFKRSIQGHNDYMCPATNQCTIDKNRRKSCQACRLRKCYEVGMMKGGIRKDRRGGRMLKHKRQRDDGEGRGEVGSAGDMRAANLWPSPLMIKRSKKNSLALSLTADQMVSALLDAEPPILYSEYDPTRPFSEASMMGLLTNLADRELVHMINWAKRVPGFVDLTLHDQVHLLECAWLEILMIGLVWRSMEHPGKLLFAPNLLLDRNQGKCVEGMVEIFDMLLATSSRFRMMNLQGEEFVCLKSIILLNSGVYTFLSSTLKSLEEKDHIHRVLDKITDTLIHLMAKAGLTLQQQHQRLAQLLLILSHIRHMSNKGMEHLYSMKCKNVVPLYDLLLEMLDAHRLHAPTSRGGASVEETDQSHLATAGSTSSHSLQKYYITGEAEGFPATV

A short description of experiment [15]: alpha-synuclein stem-loop luciferase translation blockers – H4 neuroglioma cells, luminescence, confirmation (AID 1988). It counts as functional, cell-based.
A further experiment relates to Candida albicans. Kind of experiment: antifungal activity against resistant Candida strain – CaCi-8, fluconazole, Alamar Blue, dry powder, dose response (AID 488807). It counts as functional, organism-based.
In experiment [16] the target is UDP-galactopyranose mutase (Mycobacterium tuberculosis, UniProt P9WIQ1). Nature of the experiment: Inhibitors of Mycobacterium tuberculosis UDP-galactopyranose mutase (UGM) enzyme Measured in Biochemical System Using Plate Reader - 2105-02_Inhibitor_Dose_CherryPick_Activity. [Related pubchem assays (depositor defined):AID504439].
Sequence of UDP-galactopyranose mutase (P9WIQ1 whole entry): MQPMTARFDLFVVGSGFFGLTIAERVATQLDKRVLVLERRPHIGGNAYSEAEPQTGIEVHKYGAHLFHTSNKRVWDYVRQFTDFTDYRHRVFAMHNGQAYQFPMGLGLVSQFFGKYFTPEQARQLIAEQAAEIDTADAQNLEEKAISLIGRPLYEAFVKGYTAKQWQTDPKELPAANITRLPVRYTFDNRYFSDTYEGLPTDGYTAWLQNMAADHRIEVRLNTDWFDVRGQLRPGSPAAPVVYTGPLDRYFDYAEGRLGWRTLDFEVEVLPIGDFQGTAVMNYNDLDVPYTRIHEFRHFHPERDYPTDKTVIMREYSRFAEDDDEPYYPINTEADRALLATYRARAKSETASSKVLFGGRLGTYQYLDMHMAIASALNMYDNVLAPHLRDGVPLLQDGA
The target in experiment [17] is Glyceraldehyde-3-phosphate dehydrogenase (Homo sapiens, UniProt P04406).
Sequence of Glyceraldehyde-3-phosphate dehydrogenase (P04406 whole entry): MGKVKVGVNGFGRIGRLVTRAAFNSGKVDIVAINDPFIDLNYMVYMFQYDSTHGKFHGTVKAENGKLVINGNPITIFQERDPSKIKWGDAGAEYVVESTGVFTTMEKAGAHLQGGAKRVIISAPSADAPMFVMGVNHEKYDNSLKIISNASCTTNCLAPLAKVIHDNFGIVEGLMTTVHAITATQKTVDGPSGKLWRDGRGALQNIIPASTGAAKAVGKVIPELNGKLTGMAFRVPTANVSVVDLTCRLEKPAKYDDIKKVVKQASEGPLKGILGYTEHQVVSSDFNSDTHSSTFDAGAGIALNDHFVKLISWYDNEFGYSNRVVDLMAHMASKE
For a further experiment, the target named is T7, Cysteine protease ATG4B (Homo sapiens, UniProt Q9Y4P1).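 Also: Fluorescence-based dose-response confirmation assay measuring inhibition of ATG4B activity.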
T7 sequence (Q9Y4P1 whole entry): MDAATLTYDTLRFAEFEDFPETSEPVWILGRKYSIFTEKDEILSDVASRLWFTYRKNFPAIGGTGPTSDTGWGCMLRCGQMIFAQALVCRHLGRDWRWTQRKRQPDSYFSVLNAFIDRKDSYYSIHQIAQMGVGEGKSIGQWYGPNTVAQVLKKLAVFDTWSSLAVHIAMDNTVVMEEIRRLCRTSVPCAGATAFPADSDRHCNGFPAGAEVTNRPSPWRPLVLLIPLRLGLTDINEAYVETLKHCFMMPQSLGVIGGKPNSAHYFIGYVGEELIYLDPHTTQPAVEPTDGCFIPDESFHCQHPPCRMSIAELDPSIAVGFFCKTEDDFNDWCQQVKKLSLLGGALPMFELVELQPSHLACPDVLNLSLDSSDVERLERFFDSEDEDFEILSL
The format is functional.

In experiment [18] the target is Heat shock 70 kDa protein 1A (Homo sapiens, UniProt P0DMV8). Kind of experiment: inhibition of Hsp70 binding activity – biochemical, fluorescence polarization, SAR follow-up (AID 1072).
Experiment [19] deals with T8, Dual specificity protein phosphatase 6 (Rattus norvegicus, UniProt Q64346).
T8 sequence (Q64346 whole entry): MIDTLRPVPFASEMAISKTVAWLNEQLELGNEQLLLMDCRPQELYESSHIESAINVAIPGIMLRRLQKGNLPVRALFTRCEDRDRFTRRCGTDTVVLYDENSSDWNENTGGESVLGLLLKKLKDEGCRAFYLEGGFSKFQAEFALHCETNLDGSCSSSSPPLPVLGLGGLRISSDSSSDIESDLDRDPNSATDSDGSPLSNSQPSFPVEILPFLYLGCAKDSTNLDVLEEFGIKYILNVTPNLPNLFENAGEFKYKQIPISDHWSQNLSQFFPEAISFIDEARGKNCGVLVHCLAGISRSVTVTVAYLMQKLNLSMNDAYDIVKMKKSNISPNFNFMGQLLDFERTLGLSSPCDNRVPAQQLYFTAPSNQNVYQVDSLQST
Experiment [20] has as its target T8, Dual specificity protein phosphatase 6. The format is functional.
The next experiment concerns the target T9, Bcl-2-like protein 10 (Homo sapiens, UniProt Q9HD36).
T9 sequence (Q9HD36 whole entry): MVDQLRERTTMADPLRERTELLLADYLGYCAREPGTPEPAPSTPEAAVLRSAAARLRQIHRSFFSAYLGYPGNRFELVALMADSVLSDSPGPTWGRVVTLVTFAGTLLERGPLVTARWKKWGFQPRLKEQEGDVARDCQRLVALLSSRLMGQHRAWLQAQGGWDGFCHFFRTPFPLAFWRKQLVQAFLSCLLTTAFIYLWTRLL
Kind of experiment: Concentration-response of Bcl-B inhibitors by biochemical FP with TR3 (AID 1243). The format is functional.

Experiment [21] concerns the target Heat shock cognate 71 kDa protein (Homo sapiens, UniProt P11142). Kind of experiment: In Vitro Hsc70 Dose Response Fluorescence Polarization Assay. [Related pubchem assays: 1072 ].
The target of a further experiment is Phospholipase A2 (Homo sapiens, UniProt P04054). The format is functional.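 Also: confirmatory dose-response counterscreen on phospholipase A2, testing hits that came from an ultra-high-throughput screen for ATG4B inhibitors.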
Sequence of Phospholipase A2 (P04054 whole entry): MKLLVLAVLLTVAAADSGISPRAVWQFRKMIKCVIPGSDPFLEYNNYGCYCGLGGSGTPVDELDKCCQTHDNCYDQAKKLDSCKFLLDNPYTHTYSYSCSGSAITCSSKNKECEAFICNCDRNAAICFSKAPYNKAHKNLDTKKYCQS
The target in experiment [22] is T10, Tyrosine-protein phosphatase non-receptor type 7 (Homo sapiens, UniProt P35236).
T10 sequence (P35236 whole entry): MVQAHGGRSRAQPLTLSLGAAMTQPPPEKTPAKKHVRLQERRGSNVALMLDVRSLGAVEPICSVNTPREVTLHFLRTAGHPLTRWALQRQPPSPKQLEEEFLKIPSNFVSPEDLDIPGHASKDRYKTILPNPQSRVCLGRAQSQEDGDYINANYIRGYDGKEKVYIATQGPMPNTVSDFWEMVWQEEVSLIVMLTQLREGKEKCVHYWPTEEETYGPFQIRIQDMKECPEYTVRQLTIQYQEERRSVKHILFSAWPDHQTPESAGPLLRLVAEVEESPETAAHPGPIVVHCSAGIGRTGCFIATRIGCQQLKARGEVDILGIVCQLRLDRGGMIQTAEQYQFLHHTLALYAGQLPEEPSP
It counts as functional.

The target of experiment [23] is Dual specificity protein phosphatase 3 (Homo sapiens, UniProt P51452). Nature of the experiment: inhibition constants for human DUSP3 – biochemical, colorimetric, SAR follow-up (AID 2004).
Sequence of Dual specificity protein phosphatase 3 (P51452 whole entry): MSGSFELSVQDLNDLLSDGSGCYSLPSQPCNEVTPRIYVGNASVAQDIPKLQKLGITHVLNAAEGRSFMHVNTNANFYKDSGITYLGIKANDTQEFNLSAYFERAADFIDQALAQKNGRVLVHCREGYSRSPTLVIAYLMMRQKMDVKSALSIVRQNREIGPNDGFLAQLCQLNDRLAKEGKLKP

T2 sequence (P11940 whole entry): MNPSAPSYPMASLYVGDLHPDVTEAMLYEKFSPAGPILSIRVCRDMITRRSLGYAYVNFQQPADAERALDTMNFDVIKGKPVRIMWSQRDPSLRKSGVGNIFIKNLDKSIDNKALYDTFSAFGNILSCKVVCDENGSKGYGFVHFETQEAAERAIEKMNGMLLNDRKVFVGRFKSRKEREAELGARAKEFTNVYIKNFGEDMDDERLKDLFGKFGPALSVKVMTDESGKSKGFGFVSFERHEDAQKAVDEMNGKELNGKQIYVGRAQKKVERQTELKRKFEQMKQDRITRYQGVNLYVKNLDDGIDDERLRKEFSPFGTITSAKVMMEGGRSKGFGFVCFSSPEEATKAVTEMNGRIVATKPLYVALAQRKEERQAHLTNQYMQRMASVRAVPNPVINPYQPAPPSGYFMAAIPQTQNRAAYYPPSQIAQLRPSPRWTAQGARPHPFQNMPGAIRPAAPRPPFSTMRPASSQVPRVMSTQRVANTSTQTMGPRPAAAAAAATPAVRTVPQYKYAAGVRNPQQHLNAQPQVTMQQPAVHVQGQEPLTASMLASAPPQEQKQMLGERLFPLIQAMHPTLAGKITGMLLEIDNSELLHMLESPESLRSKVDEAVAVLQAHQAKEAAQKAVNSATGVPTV
Sequence of Keap1/Nrf2 (Q16236 whole entry): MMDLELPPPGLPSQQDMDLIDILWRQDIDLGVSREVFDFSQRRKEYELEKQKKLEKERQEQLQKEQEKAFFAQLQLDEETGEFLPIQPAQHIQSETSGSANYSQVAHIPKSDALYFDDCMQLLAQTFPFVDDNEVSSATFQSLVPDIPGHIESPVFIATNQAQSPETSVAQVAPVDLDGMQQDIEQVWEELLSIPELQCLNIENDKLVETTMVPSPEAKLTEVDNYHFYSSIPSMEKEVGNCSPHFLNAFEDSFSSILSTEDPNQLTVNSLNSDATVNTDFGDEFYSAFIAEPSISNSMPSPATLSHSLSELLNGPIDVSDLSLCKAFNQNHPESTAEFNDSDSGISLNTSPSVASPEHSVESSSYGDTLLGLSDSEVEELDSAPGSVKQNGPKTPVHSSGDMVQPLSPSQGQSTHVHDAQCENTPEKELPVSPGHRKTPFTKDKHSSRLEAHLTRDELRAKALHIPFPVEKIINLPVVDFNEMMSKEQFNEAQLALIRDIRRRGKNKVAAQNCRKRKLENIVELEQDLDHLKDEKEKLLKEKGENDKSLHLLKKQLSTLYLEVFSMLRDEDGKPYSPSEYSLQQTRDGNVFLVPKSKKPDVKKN
Sequence of Keap1/Nrf2 (Q14145 whole entry): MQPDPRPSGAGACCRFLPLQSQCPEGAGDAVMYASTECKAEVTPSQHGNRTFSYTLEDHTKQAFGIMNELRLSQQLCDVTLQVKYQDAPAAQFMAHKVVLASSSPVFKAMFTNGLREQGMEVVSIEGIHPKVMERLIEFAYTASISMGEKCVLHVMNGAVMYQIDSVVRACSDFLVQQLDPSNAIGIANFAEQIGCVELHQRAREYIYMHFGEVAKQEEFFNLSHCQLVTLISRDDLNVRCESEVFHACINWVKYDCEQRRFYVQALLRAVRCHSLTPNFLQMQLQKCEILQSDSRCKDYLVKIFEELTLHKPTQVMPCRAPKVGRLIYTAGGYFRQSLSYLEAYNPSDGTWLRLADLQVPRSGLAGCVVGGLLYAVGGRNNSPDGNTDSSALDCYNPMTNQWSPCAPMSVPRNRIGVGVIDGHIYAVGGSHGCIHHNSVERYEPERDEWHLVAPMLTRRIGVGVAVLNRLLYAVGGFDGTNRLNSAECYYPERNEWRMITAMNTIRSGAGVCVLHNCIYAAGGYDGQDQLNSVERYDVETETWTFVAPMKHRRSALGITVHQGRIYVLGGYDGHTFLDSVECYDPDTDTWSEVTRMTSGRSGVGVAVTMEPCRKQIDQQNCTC
Sequence of Heat shock cognate 71 kDa protein (P11142 whole entry): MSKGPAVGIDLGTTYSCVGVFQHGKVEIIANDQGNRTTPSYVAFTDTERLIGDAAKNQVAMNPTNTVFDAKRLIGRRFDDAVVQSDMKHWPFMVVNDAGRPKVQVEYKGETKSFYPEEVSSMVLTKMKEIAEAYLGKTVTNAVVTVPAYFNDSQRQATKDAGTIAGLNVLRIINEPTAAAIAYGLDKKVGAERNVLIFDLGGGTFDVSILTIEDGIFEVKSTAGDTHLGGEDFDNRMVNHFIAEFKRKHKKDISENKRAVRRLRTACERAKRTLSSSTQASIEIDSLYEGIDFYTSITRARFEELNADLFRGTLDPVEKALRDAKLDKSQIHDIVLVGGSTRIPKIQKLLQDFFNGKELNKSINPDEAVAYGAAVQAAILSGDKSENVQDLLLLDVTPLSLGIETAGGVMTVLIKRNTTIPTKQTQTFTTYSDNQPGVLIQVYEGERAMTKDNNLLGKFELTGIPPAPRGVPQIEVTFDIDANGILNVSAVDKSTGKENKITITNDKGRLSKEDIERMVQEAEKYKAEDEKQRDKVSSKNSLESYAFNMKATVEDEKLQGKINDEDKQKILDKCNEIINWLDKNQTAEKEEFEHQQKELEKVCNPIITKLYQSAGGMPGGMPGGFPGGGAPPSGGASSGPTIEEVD

With `O=C(C1=C(O)C(=O)N(c2nccs2)C1c1ccccc1)c1cc2ccccc2o1` (centres undefined), the AC50 on Keap1/Nrf2 was 1.15 µM (active). Besides, the EC50 in [1] and in experiment [2] was > 99 µM (inactive) in each case.

Take `COc1cc([N+](=O)[O-])ccc1NC(=O)COC(=O)c1ccc(NC(N)=O)cc1`: the IC50 in [3] is 76.2 µM (active); in experiment [4], > 66.6 µM (inactive); in experiment [5], 14.6 µM (active); in [6], 10.2 µM (active); in experiment [8], > 100 µM (inactive); in experiment [9], 4.62 µM (active). Moreover, in experiment [7], the EC50 was 10.4 µM (active).

For the molecule `Cc1nc2ccccc2c(=O)n1/N=C/c1c(O)ccc2oc3c(c12)CCCC3`, the concentration at half-maximal activity (AC50) in experiment [10] is 30 µM (active); in [14], 32.8 µM (active). Moreover, in experiment [11], the CC50 is 4.26 µM (active). Also, the 50% effective concentration (EC50) in [12] was 11.1 µM (active); in experiment [13], 11.7 µM (active); in experiment [15], 9.98 µM (active). Moreover, on Estrogen receptor, the IC50 is 29.2 µM (active).

With `Oc1c2nc3ccccc3c-2nc2n1CCS2`, in the experiment on Candida albicans, the AC50 was 17.1 µM (active).

For `O=C(NCCc1ccc(F)cc1)c1cccc2c1C(=O)c1ccc(N3CCC(Cc4ccccc4)CC3)cc1S2(=O)=O`, the AC50 in experiment [16] was 47.8 µM (active).

On to `O=C(O)C1Nc2c(Cl)cc(Cl)cc2C2C=CCC12` (centres undefined), for which the IC50 in experiment [17] was > 100 µM (not active); at Cysteine protease ATG4B it was 2.58 µM (active); in [18], > 100 µM (not active); in experiment [19], 63.5 µM (active); in experiment [20] it was 53 µM (active); in experiment [21], > 100 µM (not active). The results for the IC50 (on Phospholipase A2; in [22]) were 9.08 µM (active) and 12.9 µM (active), respectively. The EC50 on Bcl-2-like protein 10 is 1.03 µM (active). In experiment [23], the Ki was 65.6 µM (inactive).

Broadly, the AC50 is the concentration giving half of the maximal activity seen. The EC50 is the concentration giving half of the maximal effect. For orientation: CC50 means the concentration giving 50% cytotoxicity. The term Ki denotes the equilibrium dissociation constant of an inhibitor or competing ligand from its target.
